Laboratory results as given in patent US9550774B2, “Dihydropyrido pyrimidine compounds as autotaxin inhibitors” (Eli Lilly and Company, priority 2013, dated 2017).

Key:
[1] = target: endogenous autotaxin (Homo sapiens (Human), UniProt Q13822); assay: Autotaxin Mediated Inhibition of LPA in the Presence of Human Plasma; type: biochemical; settings: 90% pooled human plasma, 3 hours at 37° C., total LPA by mass spec
Source text: The following assay is intended to measure autoaxin mediated inhibition of LPA. This assay is a tool that can be used to identify autotaxin-mediated LPA inhibitor compounds when it is used to test compounds that have been identified as autotaxin inhibitors. LPA biosynthesis through autotaxin is believed to the source of LPA for LPA1 mediated neuropathic pain. Makoto Inoue, et. al, “Autotaxin, a synthetic enzyme of lysophosphatidic acid (LPA), mediates the induction of nerve-injured neuropathic pain”, Molecular Pain, 2008, 4:6. Inhibition of the autotaxin mediated LPA biosynthesis is supported by the results of this assay.
Units of plasma from healthy human female donors collected in sodium heparin (Lampire Biologicals) are pooled, aliquoted and stored at −80° C. […] A 400 μl aliquot of extraction buffer (50% methanol, 49.9% acetonitrile, 0.1% acetic acid) containing LPA internal standards (50 ng/ml D5 deuterium LPA 16:0 and 50 ng/ml D5 deuterium LPA 18:0) is added to each well and the total LPA in each sample is determined by mass spec analysis. Percent inhibition of LPA is calculated according to the following formula: 100−(3 hour plasma+test compound−0 hour plasma no test compound control)/(3 hour plasma no test compound control−0 hour plasma no test compound control)×100
[formula] IC50 values are calculated using 4 parameter curve fitting. […]

[2] = target: recombinant human autotaxin (Homo sapiens (Human), UniProt Q13822); assay: Inhibition of Autotaxin as Measured by Choline Release; type: biochemical; settings: LPC 16:0 30 μM substrate, 37° C. for 1 hour, 4 parameter curve fit
Method: The purpose of this assay is to detect autotaxin inhibition using a choline release assay.
Test compound (10 mM stocks in 100% DMSO) is serially diluted in 100% DMSO resulting in 10 concentrations of 100× inhibitor in half area 96 well plates (Corning 3992). Each of these 10 wells in 100% DMSO is diluted 1:33.33 in assay buffer in round bottom 96 well plates (Fisher 12565502) resulting in 3× concentrations in well containing 3% DMSO. The assay buffer is 50 mM Tris pH8.0, 5 mM KCl, 1 mM CaCl2, 1 mM MgCl2, 0.01% TRITON™ X-100 (Sigma T9284) and 0.01% fatty acid free bovine serum albumin (Sigma A8806). A 20 μl aliquot of each 3× test compound is then added to black flat bottom 96 well plates (Corning 3991) in singlicate. A 20 μl aliquot per well of 3× recombinant human autotaxin, (Echelon, E-4000) (full length human autotaxin with a C-terminal His tag transfected into 293E cells and purified via nickel chelate and size exclusion chromatography) is then added to every well except for the no enzyme control wells. A 20 μl aliquot per well of assay buffer is added to the no enzyme control wells. […] The resorufin on the plates is measured with a SpectraMax Gemini EM fluorometer at excitation-emission wavelengths of 530-590 nm using SoftMax Pro 4.8 software. IC50s are calculated using 4 parameter curve fits. […]

IC50 [1] | IC50 [2] | SMILES
5.4 nM | < 1.7 nM | O=C(c1cnn(Cc2c[nH]nn2)c1)N1CCc2nc(NC3Cc4ccccc4C3)ncc2C1 [Example 1, [2-(indan-2-ylamino)-7,8-dihydro-5H-pyrido[4,3-d]pyrimidin-6-yl]-[1-(1H-triazol-4-ylmethyl)pyrazol-4-yl]methanone]
7 nM | < 1.7 nM | O=C(c1cc(-c2cnn[nH]2)ccn1)N1CCc2nc(NC3Cc4ccccc4C3)ncc2C1 [Example 9, [2-(indan-2-ylamino)-7,8-dihydro-5H-pyrido[4,3-d]pyrimidin-6-yl]-[4-(1H-triazol-5-yl)-2-pyridyl]methanone]
